Reference: PubChem BioAssay (NCI)
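48-hour exposure; five concentrations; linearly interpolated endpoints. GI50 = concentration required for 50% inhibition of growth. TGI: total growth inhibition.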

Experiments:
Assay in all cases: NCI anticancer screen, dose series, 48 h
A498 renal = tested on: A498 renal
K-562 leukemia = tested on: K-562 leukemia
RXF 393 renal = tested on: RXF 393 renal
OVCAR-4 ovarian = tested on: OVCAR-4 ovarian
MOLT-4 leukemia = tested on: MOLT-4 leukemia
UO-31 renal = tested on: UO-31 renal
SK-MEL-2 melanoma = tested on: SK-MEL-2 melanoma
NCI-H460 lung = tested on: NCI-H460 lung
UACC-62 melanoma = tested on: UACC-62 melanoma
MDA-MB-435 = tested on: MDA-MB-435

SMILES | TGI (A498 renal) | TGI (K-562 leukemia) | TGI (RXF 393 renal) | TGI (OVCAR-4 ovarian) | TGI (MOLT-4 leukemia) | TGI (UO-31 renal) | TGI (SK-MEL-2 melanoma) | TGI (NCI-H460 lung) | TGI (UACC-62 melanoma) | TGI (MDA-MB-435) | GI50 (A498 renal) | GI50 (K-562 leukemia) | GI50 (OVCAR-4 ovarian) | GI50 (MOLT-4 leukemia) | GI50 (UO-31 renal) | GI50 (SK-MEL-2 melanoma) | GI50 (MDA-MB-435) | GI50 (NCI-H460 lung) | GI50 (UACC-62 melanoma) | GI50 (RXF 393 renal)
O=C(O)[C@@H](NS(=O)(=O)c1ccc([N+](=O)[O-])cc1)c1ccccc1 | > 100 µM | > 100 µM | > 100 µM | > 100 µM | > 100 µM | > 100 µM | > 100 µM | > 100 µM | > 100 µM | – | – | – | – | – | – | – | – | – | – | –
c1ccc2c(CNCCCCCCCCCCCCNCc3cccc4ccccc34)cccc2c1 | 19.7 µM | 2.11 µM | 2.66 µM | 3.05 µM | 2.92 µM | 3.06 µM | 2.93 µM | 2.95 µM | 3.35 µM | – | – | – | – | – | – | – | – | – | – | –
CC1=CC(=O)c2ccc(C)cc2C1=O | 34.4 µM | > 100 µM | – | 52.5 µM | 6.24 µM | 24.6 µM | 44.3 µM | 32.4 µM | 21.9 µM | 5.78 µM | – | – | – | – | – | – | – | – | – | –
O=C(Cc1ccccc1)NS(=O)(=O)c1ccccc1 | > 100 µM | > 100 µM | > 100 µM | > 100 µM | > 100 µM | > 100 µM | > 100 µM | > 100 µM | > 100 µM | – | – | – | – | – | – | – | – | – | – | –
CCOC(=O)C(C(=O)OCC)=c1sc(=C(C(=O)OCC)C(=O)OCC)s1 | – | > 100 µM | > 100 µM | > 100 µM | > 100 µM | – | > 100 µM | > 100 µM | > 100 µM | – | – | – | – | – | – | – | – | – | – | –
Nc1nc(=Nc2ccccc2)ss1 | > 100 µM | > 100 µM | > 100 µM | > 100 µM | > 100 µM | > 100 µM | – | > 100 µM | > 100 µM | – | – | – | – | – | – | – | – | – | – | –
CC1=Nc2ccccc2C12C(c1ccccc1)C(c1ccccc1)C(=O)N1c3ccccc3CC12 (configuration not stated) | > 100 µM | > 100 µM | > 100 µM | > 100 µM | > 100 µM | > 100 µM | > 100 µM | > 100 µM | > 100 µM | – | – | – | – | – | – | – | – | – | – | –
CC(C)c1ccc2nc3ccc(C(=O)NCCN4CCN(c5ccccc5)CC4)cn3c(=O)c2c1 | > 100 µM | > 100 µM | – | > 100 µM | – | > 100 µM | – | > 100 µM | > 100 µM | – | – | – | – | – | – | – | – | – | – | –
C=C[C@H]1C=Cc2c(OC)cccc2[C@@H]1COP1(=S)NC(C)C(c2ccccc2)O1 (some centres not stated) | – | > 100 µM | > 100 µM | > 100 µM | > 100 µM | – | – | > 100 µM | > 100 µM | – | – | – | – | – | – | – | – | – | – | –
COC(=O)Cc1cc(=O)n2c([nH]c3ccccc32)c1C#N | > 100 µM | > 100 µM | > 100 µM | > 100 µM | > 100 µM | > 100 µM | > 100 µM | > 100 µM | – | – | – | – | – | – | – | – | – | – | – | –
Cn1sc2ccccc2c1=S | 99 µM | 26.1 µM | 7.95 µM | 19.4 µM | 14.1 µM | 28.7 µM | 56.5 µM | 32.3 µM | 18.1 µM | – | – | – | – | – | – | – | – | – | – | –
COC(=O)[C@@]12C=CC(=O)[C@H]3C[C@@H](C(C(C)C)C1)[C@]32OC (some centres not stated) | > 100 µM | > 100 µM | > 100 µM | > 100 µM | > 100 µM | – | > 100 µM | > 100 µM | > 100 µM | – | – | – | – | – | – | – | – | – | – | –
Cc1ccc(N2C(=O)C(Cl)=C(Cl)C2=O)cc1 | > 100 µM | 87.4 µM | 25.4 µM | 34.4 µM | 46.5 µM | > 100 µM | > 100 µM | > 100 µM | – | – | – | – | – | – | – | – | – | – | – | –
CCCCCCCCCCCCC(CCCCCCCCCCCC)OP(=O)(O)O | 52.8 µM | > 100 µM | > 100 µM | > 100 µM | > 100 µM | > 100 µM | > 100 µM | > 100 µM | > 100 µM | – | – | – | – | – | – | – | – | – | – | –
Cc1c(-c2nnc(-c3cc(Cl)c(Cl)cc3Cl)o2)nnn1-c1ccnc2c(C(F)(F)F)cccc12 | 76.3 µM | > 100 µM | – | 65.8 µM | > 100 µM | 34.7 µM | 52 µM | 42.9 µM | > 100 µM | 75.1 µM | 30.3 µM | 33.1 µM | 23.9 µM | 36.9 µM | 16.8 µM | 19.9 µM | 26.8 µM | 21.7 µM | 26.5 µM | –
COc1cc2c3c(n(CCCN4CCCC(O)C4)c(=O)c2cc1OC)-c1cc2c(cc1C3=O)OCO2 (configuration not stated) | 25.1 µM | 6.87 µM | – | 2.68 µM | 0.678 µM | 2.24 µM | 28.4 µM | 6.13 µM | 12.8 µM | 2.98 µM | 7.73 µM | 0.0881 µM | 1.07 µM | < 0.005 µM | 0.96 µM | 2.68 µM | 0.836 µM | < 0.005 µM | 5.01 µM | –
COc1ccc(C(c2cc3c(cc2O)OCO3)N2CCOCC2)cc1OC (configuration not stated) | – | 69.4 µM | 58.2 µM | 29 µM | 80.8 µM | 25 µM | 32.5 µM | 71.9 µM | 19.9 µM | 23.4 µM | – | – | – | – | – | – | – | – | – | –
Nc1ccccc1C#Cc1ccccc1C#Cc1cnccn1 | – | 93.1 µM | > 100 µM | 72.3 µM | > 100 µM | 28.1 µM | – | 20.5 µM | 28 µM | 13.6 µM | – | 26.1 µM | 20.6 µM | 40.8 µM | 12.1 µM | – | 3.48 µM | 7.87 µM | 14.6 µM | 85.4 µM
CCOC(=O)NC1CC2CCC1(OC)C=C2C (configuration not stated) | > 100 µM | > 100 µM | > 100 µM | > 100 µM | > 100 µM | > 100 µM | > 100 µM | > 100 µM | > 100 µM | – | – | – | – | – | – | – | – | – | – | –
CC(=O)[O][Bi]([c]1ccccc1)[c]1ccccc1 | 32.4 µM | 14.5 µM | 7.14 µM | 27 µM | > 100 µM | 7.01 µM | – | 36.4 µM | 24.1 µM | 22.2 µM | 18.2 µM | 2.75 µM | 13.7 µM | 2.9 µM | 2.08 µM | – | 7.26 µM | 18.1 µM | 11.6 µM | 2.45 µM
